Data set [1] can be described thus: Cytotoxicity against human keratinocytes assessed as cell viability at 100 uM after 24 to 48 hrs by neutral red assay. It is filed as cell-based. The note with it: keratinocyte.
The nature of data set [2]: Cytotoxicity against human keratinocytes assessed as cell viability at 1 uM after 24 to 48 hrs by neutral red assay. It is filed as cell-based. The note with it: keratinocyte.
A short description of data set [3]: Cytotoxicity against human keratinocytes assessed as cell viability at 10 uM after 24 to 48 hrs by neutral red assay. It is filed as cell-based, Keratinocyte. To be noted: keratinocyte, 10 µM.
Data set [4] has as its target T1, Kallikrein-7 (Homo sapiens, UniProt P49862). The data set can be described thus: Ratio of Ki for mixed-type inhibition of human kallikrein7 assessed as enzyme-substrate-inhibitor complex to Ki for mixed-type inhibition of human kallikrein7 assessed as enzyme-inhibitor complex.
Target sequence in this assay (P49862 30-253 limits assumed): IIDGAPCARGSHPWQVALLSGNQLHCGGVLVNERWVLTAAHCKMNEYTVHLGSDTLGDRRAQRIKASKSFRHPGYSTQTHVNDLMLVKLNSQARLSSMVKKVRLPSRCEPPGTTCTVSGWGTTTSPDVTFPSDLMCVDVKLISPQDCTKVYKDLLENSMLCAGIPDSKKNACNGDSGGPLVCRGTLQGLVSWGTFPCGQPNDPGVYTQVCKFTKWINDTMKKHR
Data set [5] concerns the target T1, Kallikrein-7. The data set can be described thus: Mixed-type inhibition of human kallikrein7 using Suc-Leu-Leu-Val-Tyr-AMC as substrate assessed as enzyme-substrate-inhibitor complex after 15 to 60 mins by Lineweaver-Burk/Eadie-Hofstee plot analysis.
Target sequence in this assay (P49862 whole entry): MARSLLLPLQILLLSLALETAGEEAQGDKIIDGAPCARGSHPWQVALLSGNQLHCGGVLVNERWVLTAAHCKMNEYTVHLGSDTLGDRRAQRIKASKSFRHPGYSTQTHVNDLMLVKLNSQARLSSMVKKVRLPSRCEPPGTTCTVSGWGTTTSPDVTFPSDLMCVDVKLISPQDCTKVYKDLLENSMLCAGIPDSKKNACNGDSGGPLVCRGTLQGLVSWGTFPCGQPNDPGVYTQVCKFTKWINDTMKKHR
Data set [6] has as its target T1, Kallikrein-7. Put plainly: Mixed-type inhibition of human kallikrein7 using Suc-Leu-Leu-Val-Tyr-AMC as substrate assessed as enzyme-inhibitor complex after 15 to 60 mins by Lineweaver-Burk/Eadie-Hofstee plot analysis.
Target sequence in this assay (P49862 whole entry): as above
For data set [7], the target named is T2, Kallikrein-5 (Homo sapiens, UniProt Q9Y337).
T2 sequence (Q9Y337 whole entry): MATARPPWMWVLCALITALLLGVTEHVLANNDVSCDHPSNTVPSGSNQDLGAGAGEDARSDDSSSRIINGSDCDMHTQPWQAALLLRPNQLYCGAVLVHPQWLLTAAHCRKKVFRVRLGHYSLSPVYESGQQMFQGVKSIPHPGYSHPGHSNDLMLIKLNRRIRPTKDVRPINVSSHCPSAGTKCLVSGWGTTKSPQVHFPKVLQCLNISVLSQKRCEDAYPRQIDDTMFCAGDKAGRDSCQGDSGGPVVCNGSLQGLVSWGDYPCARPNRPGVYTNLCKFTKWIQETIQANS
The data set can be described thus: Competitive inhibition of human kallikrein5 using Boc-Val-Pro-Arg-AMC as substrate after 15 to 60 mins by Lineweaver-Burk/Eadie-Hofstee plot analysis.

Data set [8] has as its target T3, Suppressor of tumorigenicity 14 protein (Homo sapiens) (UniProt Q9Y5Y6).
T3 sequence (whole entry): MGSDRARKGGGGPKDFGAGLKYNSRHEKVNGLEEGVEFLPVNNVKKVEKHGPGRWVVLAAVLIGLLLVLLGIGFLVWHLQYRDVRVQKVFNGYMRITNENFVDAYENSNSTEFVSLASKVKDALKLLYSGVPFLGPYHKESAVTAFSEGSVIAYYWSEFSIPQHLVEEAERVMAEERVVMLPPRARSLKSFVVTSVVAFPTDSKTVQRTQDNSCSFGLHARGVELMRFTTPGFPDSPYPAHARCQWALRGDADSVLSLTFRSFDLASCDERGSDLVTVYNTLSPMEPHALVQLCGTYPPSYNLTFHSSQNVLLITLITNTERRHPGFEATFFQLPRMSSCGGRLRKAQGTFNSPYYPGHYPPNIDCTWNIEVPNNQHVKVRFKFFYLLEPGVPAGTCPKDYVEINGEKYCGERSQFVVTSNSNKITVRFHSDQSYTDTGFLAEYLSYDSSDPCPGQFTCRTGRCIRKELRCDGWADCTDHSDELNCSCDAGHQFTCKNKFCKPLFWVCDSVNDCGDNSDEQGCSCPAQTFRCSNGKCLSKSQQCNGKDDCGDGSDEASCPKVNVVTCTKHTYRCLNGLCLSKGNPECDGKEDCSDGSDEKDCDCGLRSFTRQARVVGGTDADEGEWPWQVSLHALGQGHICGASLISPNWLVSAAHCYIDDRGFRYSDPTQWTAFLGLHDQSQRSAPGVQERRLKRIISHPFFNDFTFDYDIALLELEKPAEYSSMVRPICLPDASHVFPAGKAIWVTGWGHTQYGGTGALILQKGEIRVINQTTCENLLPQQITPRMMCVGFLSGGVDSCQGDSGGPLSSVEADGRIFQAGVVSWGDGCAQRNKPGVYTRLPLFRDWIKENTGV
Put plainly: Reversible inhibition of matriptase (unknown origin) using Boc-Gln-Ala-Arg-AMC as substrate after 15 to 60 mins by fluorescence assay.

Data set [9] addresses T4, Kallikrein-14 (Homo sapiens) (UniProt Q9P0G3).
T4 sequence (whole entry): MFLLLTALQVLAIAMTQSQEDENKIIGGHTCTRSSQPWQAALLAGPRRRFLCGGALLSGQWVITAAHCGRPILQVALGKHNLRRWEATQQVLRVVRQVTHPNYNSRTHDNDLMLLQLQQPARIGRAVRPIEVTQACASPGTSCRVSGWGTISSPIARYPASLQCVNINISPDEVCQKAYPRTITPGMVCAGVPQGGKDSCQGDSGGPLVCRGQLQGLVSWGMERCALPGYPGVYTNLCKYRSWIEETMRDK
The data set can be described thus: Reversible inhibition of human kallikrein14 using Boc-Val-Pro-Arg-AMC as substrate after 15 to 60 mins by fluorescence assay.

Data set [10] deals with T1, Kallikrein-7. Put plainly: Reversible inhibition of human kallikrein7 using Suc-Leu-Leu-Val-Tyr-AMC as substrate after 15 to 60 mins by fluorescence assay.
Target sequence in this assay (P49862 30-253 limits assumed): as the sequence (P49862 30-253 limits assumed) above
Data set [11] has as its target Kallikrein-5 (Homo sapiens) (UniProt Q9Y337). The data set can be described thus: Reversible inhibition of human kallikrein5 using Boc-Val-Pro-Arg-AMC as substrate after 15 to 60 mins by fluorescence assay.
The target of data set [12] is T5, Suppressor of tumorigenicity 14 protein (Homo sapiens, UniProt Q9Y5Y6).
T5 sequence (Q9Y5Y6 whole entry): T3 sequence (whole entry)
The data set can be described thus: Inhibition of matriptase (unknown origin) using Boc-Gln-Ala-Arg-AMC as substrate after 15 mins by fluorescence assay.

The target of a further data set is T6, Kallikrein-14 (Homo sapiens, UniProt Q9P0G3).
T6 sequence (Q9P0G3 whole entry): T4 sequence (whole entry)
Put plainly: Inhibition of human kallikrein14 using Boc-Val-Pro-Arg-AMC as substrate after 15 mins by fluorescence assay.

The target of data set [13] is T1, Kallikrein-7. Put plainly: Inhibition of human kallikrein7 using Suc-Leu-Leu-Val-Tyr-AMC as substrate after 15 mins by fluorescence assay.
Target sequence in this assay (P49862 whole entry): as the sequence (P49862 whole entry) above
Data set [14] has as its target T2, Kallikrein-5. Put plainly: Inhibition of human kallikrein5 using Boc-Val-Pro-Arg-AMC as substrate after 15 mins by fluorescence assay.
For data set [15], the target named is Kallikrein-5 (Homo sapiens) (UniProt Q9Y337). The data set can be described thus: Competitive inhibition of human kallikrein5 using Boc-Val-Pro-Arg-AMC as substrate at 50 uM after 15 to 60 mins by Lineweaver-Burk/Eadie-Hofstee plot analysis.
Data set [16] has the same target. The data set can be described thus: Inhibition of human kallikrein5 using Boc-Val-Pro-Arg-AMC as substrate at 50 uM after 15 mins by fluorescence assay.
Data set [17] concerns the target T3, Suppressor of tumorigenicity 14 protein (Homo sapiens). The data set can be described thus: Inhibition of matriptase (unknown origin) using Boc-Gln-Ala-Arg-AMC as substrate at 50 uM after 15 mins by fluorescence assay.
Data set [18] deals with T4, Kallikrein-14 (Homo sapiens). Put plainly: Inhibition of human kallikrein14 using Boc-Val-Pro-Arg-AMC as substrate at 50 uM after 15 mins by fluorescence assay.

The source made the active and inactive calls. The rule behind the calls is not given here.

Regarding `COc1cc(/C=C(/C#N)c2nc3ccccc3[nH]2)ccc1OCC(=O)N1CCOCC1`, the Activity entry in data set [1], in data set [2] and in data set [3] was “Non-toxic” in each case. Also, on Kallikrein-7 [4], the Ratio Ki was 2. For the same molecule, the results for the inhibitory constant (Ki) at Kallikrein-7 [5], on Kallikrein-7 [6] and on Kallikrein-5 [7] were 131 µM, 55 µM and 121 µM, respectively. For the same molecule, the inhibition result (in [8]; in [9]; on Kallikrein-7 [10]; in data set [11]) was “Active” each time. Further, the IC50 – broadly, the concentration that inhibits the measured activity by half – in data set [12] amounted to 128 µM; against Kallikrein-14, 108 µM; at Kallikrein-7 [13] it was 83 µM; against Kallikrein-5 [14], 125 µM.

Turning to `CCOc1cccc(NC(=O)/C(C#N)=C\c2ccc(OCC(=O)O)c(OC)c2)c1`, the Activity entry in data set [2] and in data set [3] was “Non-toxic” throughout. Besides, the Ratio Ki on Kallikrein-7 [4] amounted to 2. The figures for the Ki at Kallikrein-7 [5] and on Kallikrein-7 [6] were 140 µM and 95 µM, respectively. In addition, the inhibition in [15] and in [16] was under 30% in each case. Further, the inhibition result (in [8]; in data set [9]; at Kallikrein-7 [10]; in data set [11]) was “Active” throughout. Also, the IC50 came out at 75 µM in data set [12], 87 µM against Kallikrein-14 and 113 µM at Kallikrein-7 [13].

For `CNC(=O)c1ccc(Nc2nnc(-c3ccc(O)cc3)c3ccccc23)cc1`, the Activity result in data set [2] and in [3] was “Non-toxic” throughout. For the same molecule, the Ratio Ki on Kallikrein-7 [4] amounted to 2. The Ki (in general, a dissociation constant, usually derived from enzyme kinetics or from competition with a known ligand) is 166 µM at Kallikrein-7 [5] and 50 µM on Kallikrein-7 [6]. Further, the inhibition in data set [15], in [17] and in [16] was under 30% in each case. Also, the inhibition result (in [8]; in data set [9]; on Kallikrein-7 [10]; in data set [11]) was “Active” each time. The IC50 on Kallikrein-14 came to 96 µM; against Kallikrein-7 [13], 66 µM.

On to `Nc1ccc2[nH]c(SCc3nc4ccccc4c(=O)n3-c3cccc(C(F)(F)F)c3)nc2c1`, for which the Activity result in data set [1], in [2] and in [3] was “Non-toxic” each time. Further, the Ratio Ki on Kallikrein-7 [4] was 2. The results for the Ki on Kallikrein-7 [5] and on Kallikrein-7 [6] were 44 µM and 15 µM, respectively. Also, the inhibition in data set [15], in data set [17], in data set [18] and in [16] was under 30% each time. In addition, the inhibition entry (in [8]; in [9]; at Kallikrein-7 [10]; in data set [11]) was “Active” each time. On Kallikrein-7 [13], the IC50 is 25 µM.

(Values after ChEMBL document CHEMBL3098059, “Identification by in silico and in vitro screenings of small organic molecules acting as reversible inhibitors of kallikreins” (Eur J Med Chem, 2013).)
